Assay results published in patent US10550094B2, “Compounds having antioxidant activity against free radicals and anti-inflammatory activity, and corresponding pharmaceutical or cosmetic compositions for skin care” (GIULIANI S.P.A., priority 2015, dated 2020).

Assays:
involucrin (IVL) = test: Skin barrier function protection: involucrin (IVL) gene expression by qRT-PCR in LPS-treated keratinocytes; assay type: cell-based, human; conditions: 13.5 μM, with LPS, Control + LPS = 1.000
Experimental: (§1) The immortalized line of human keratinocytes NCTC2544 is used (Perry V. P. et al., 1957), cultured in sterile flasks ([…]), incubated at 37° C. in a humid atmosphere at 5% CO2 in RPMI culture medium added with bovine fetal serum (FBS), 2 mm glutamine, 1% non-essential amino acids, in the presence of 1% penicillin and streptomycin. The 1:3 split is done every 2 days upon achieving the monolayer by washing with 1×PBS (phosphate buffer without Ca^2+ and Mg^2+) and detachment of cells with a trypsin-EDTA solution at 37° C. for 2 minutes. The cells were kept in culture in 25 cm^3 sterile flasks and incubated at 37° C. in a humid atmosphere at 5% CO2.
(§2) Negative control: untreated cells in RPMI medium added to 2.5% fetal bovine serum (FBS), 1% non-essential amino acids (NEAA), 1% of a penicillin and streptomycin mixture (Pen-Strep Mix), and kept in (12 well) 25 cm^2 culture plates at 37° C. and 5% CO2.
(§3) Positive control: cells in RPMI medium added to 2.5% fetal bovine serum (FBS), 1% non-essential amino acids (NEAA), 1% of a penicillin and streptomycin mixture (Pen-Strep Mix) and 10 μg/mL LPS (lipopolysaccharide) and kept in ([…]) 25 cm^2 culture plates at 37° C. and 5% CO2 (in the dark).
(§4) Study of the Skin Barrier Function Protection
(§5) The gene expression of the involucrin (IVL) and fillagrin (FLG) markers was evaluated by relative quantitative RT-PCR (quantitative reverse transcription-polymerase chain reaction-qRT-PCR).
(§6) This assay involved three sequential steps: • extraction of total RNA; • retrotranscription in cDNA; • qRT-PCR.
(§7) Human keratinocytes NCTC2544 were seeded in 12-well plates at the density of 0.5*10^6 cells/well and incubated until reaching about 80% confluence.
(§8) Then, the cells were incubated for 16 and 24 hours with the active compounds to be tested and the respective controls at the following concentrations: 13.5 and 27 μM, and admixed (in the well) with 10 μg/ml LPS.
(§9) The dilutions were prepared starting from 1000× stock in DMSO, sterile-filtered and using RPMI medium added to 2.5% fetal bovine serum (FBS), 1% non-essential amino acids (NEAA), 1% of a penicillin and streptomycin mixture (Pen-Strep Mix).
(§10) Cells kept in the culture medium alone (RPMI 2.5% FBS) were used as a negative control.
(§11) Cells in the culture medium alone (RPMI 2.5% FBS) and treated only with 10 μg/mL LPS were used as a positive control.
(§12) After incubation, the RNA was extracted. Total RNA was extracted from NCTC 2544 cells using the commercial kit Ribospin™ (GeneAllBiotechnology Co., LTD).
(§13) For RT-PCR amplification, the TaqMan® probe (AppliedBiosystems) method was used. The following TYaqMan probe was used: Hs00846307_s1 (IVL) and Hs00863478_g1 (FLG).
(§14) GAPDH: Hs99999905_m1 was used as control gene (housekeeping).
(§15) The data obtained were analyzed according to the method of 2-ΔΔCt and so it was possible to calculate the relative values of expression of the gene of interest, normalized compared to the housekeeping gene and calibrated on the control sample (untreated cells): ΔΔCt=ΔCttarget-housekeeping (control)−ΔCttarget-housekeeping (treated cells)
(§16) The 2^−ΔΔCt was calculated assuming an amplification efficiency of 100%.

[1] = HORAC Hydroxyl radical antioxidant capacity assay
From the text: HORAC Assay: Hydroxyl Antioxidant Capacity In Vitro
The commercial kit “Oxiselect Hydroxyl Radical Antioxidant Capacity (HORAC) activity assay” (Cell Biolabs).
The HORAC assay esxpresses the compound antiradical capacity towards the hydroxyl radical OH′ and is based on the oxidation of a fluorescent probe by hydroxyl radicals through a hydrogen transfer process (HAT). Hydroxyl radicals are produced by a radical initiator hydroxyl and by Fenton's reagent, which quenches the fluorescent probe over time. The antioxidants present in the sample block the oxidation by the hydroxyl radical of the fluorescent probe until the antioxidant activity in the sample runs out. The remaining hydroxyl radicals destroy the fluorescence of the fluorescent probe. The antioxidant capacity of the sample is related to the fluorescence decay curve, which usually is represented as the area under the curve (AUC). The AUC is used to quantify the total antioxidant activity of the hydroxyl radical in a sample and is compared to the curve of an antioxidant standard.
The compounds of the invention were tested at the following concentrations: 13.5 μM; 27 μM, 13.5 mM; 27 mM.
For comparison purposes, also samples of the compound monofurfurylidene-2.4-sorbitol defined below by the acronym ARGB11, were in this case tested under the same two concentrations, as a reference compound according to EP0345362 mentioned above as the background art of substances with free radical inhibition activity.

fillagrin (FLG) = test: Skin barrier function protection: filaggrin (FLG) gene expression by qRT-PCR in LPS-treated keratinocytes; assay type: cell-based, human; conditions: 13.5 μM, with LPS, Control + LPS = 1.000
Experimental: as §1, §2, §3, §4, §5, §6, §7, §8, §9, §10, §11, §12, §13, §14, §15, §16

[2] = higher dosages (13.5 μM and 27 μM)
[3] = lower concentrations 13.5 μM and 27 μM

Structure (SMILES) | (IVL) 16 h RQ ± SEM (involucrin (IVL)) | HORAC (Hydroxyl Radical Antioxidant Capacity) ([1]; 13.5 μM) | HORAC (Hydroxyl Radical Antioxidant Capacity) ([1]; 27 μM) | HORAC (Hydroxyl Radical Antioxidant Capacity) ([1]; 13.5 mM) | HORAC (Hydroxyl Radical Antioxidant Capacity) ([1]; 27 mM) | HORAC activity compared with reference ARGB11 [1, 2] | HORAC activity compared with reference ARGB11 [1, 3] | (FLG) 16 h RQ ± SEM (fillagrin (FLG))
OCC(O)C1OC(c2ccccc2)OC(CO)C1O (stereo not shown) [Sorbityl benzal, sorbityl benzal] | 6.646 ± 1.733 | 31.04 μMole GAE/L | 40.110 μMole GAE/L | 308.497 μMole GAE/L | 408.795 μMole GAE/L | fully comparable activity | fully comparable activity | 16.971 ± 2.987
O=C(OCC1OC(c2ccco2)OC(C(COC(=O)c2ccccc2)OC(=O)c2ccccc2)C1OC(=O)c1ccccc1)c1ccccc1 (stereo not shown) [Tetrabenzoyl sorbityl furfural, tetrabenzoyl sorbityl furfural] | 9.563 ± 1.159 | 37.65 μMole GAE/L | 41.485 μMole GAE/L | 300.856 μMole GAE/L | 211.479 μMole GAE/L | fully comparable activity | fully comparable activity | 22.864 ± 7.892
OCC1OC(c2ccco2)OC(CO)C1O (stereo not shown) [Xylitil furfural, xylitil furfural] | 60.653 ± 14.549 | 418.69 μMole GAE/L | 524.692 μMole GAE/L | 897.479 μMole GAE/L | 1242.582 μMole GAE/L | higher activity than the selected reference ARGB11 | higher than the selected reference ARGB11 | 64.669 ± 6.930
COc1cc(C2OC(CO)C(O)C(C(O)CO)O2)ccc1O (stereo not shown) [Sorbityl vanillinal, sorbityl vanillinal] | 18.347 ± 1.664 | 70.29 μMole GAE/L | 115.422 μMole GAE/L | 3544.098 μMole GAE/L | 3261.945 μMole GAE/L | higher activity than the selected reference ARGB11 | higher than the selected reference ARGB11 | 4.408 ± 2.683
CC(=O)OCC1OC(c2ccco2)OC(C(COC(C)=O)OC(C)=O)C1OC(C)=O (stereo not shown) [Tetracetyl sorbityl furfural, tetracetyl sorbityl furfural] | 57.282 ± 17.060 | 797.50 μMole GAE/L | 171.083 μMole GAE/L | 330.960 μMole GAE/L | 428.775 μMole GAE/L | fully comparable activity | higher than the selected reference ARGB11 | 11.158 ± 5.679
